# Measured values taken from PubChem BioAssay AID1963962 (Molecular Pharmacology Branch, DTP, NCI, 2024).
# System: 967376-340-R-J2-PDC multicell spheroid viability
# Test: Anticancer human tumor 967376-340-R-J2-PDC patient-derived colon adenocarcinoma cell line growth inhibition [PI3K]
# Settings: for IC50: curve of first compound; for viability, T/C: stronger effect = lower value
# From the text: Combinatorial screen of targeted agents with the PI3K inhibitors inavolisib, alpelisib, duvelisib, and copanlisib in multi-cell type tumor spheroids
# A high-throughput screen of multi-cell type tumor spheroids was designed to identify active combinations of targeted small molecules and PI3K pathway inhibitors. Complex spheroids include a stromal component modeled by human endothelial cells (HUVEC) and fibroblasts modeled by human mesenchymal stem cells (MSCs). The concentration ranges selected for each drug and investigational agent were based upon clinically achievable concentrations if the clinical Cmax of the agent was known.
# Compounds. The drugs and investigational agents: inavolisib (NSC800729), alpelisib (NSC765974), duvelisib (NSC772469), copanlisib (NSC816437), ipatasertib (NSC767898), afuresertib (NSC778305), talazoparib (NSC767125), sapanisertib (NSC764658), selumetinib (NSC741078), tovorafenib (DAY101, NSC766906), vemurafenib (NSC761431), ravoxertinib (NSC781343), sotorasib (NSC818433), MRTX1133 (NSC 836407), abemaciclib (NSC 768073), palbociclib (NSC758247), venetoclax (NSC 766270), SY5609 (NSC837396), enzalutamide (NSC755605), and darolutamide (NSC825331), were obtained from the National Cancer Institute (NCI) Developmental Therapeutics Program Chemical Repository. The FDA-approved anticancer drug set is available from the NCI Developmental Therapeutics Program. […] The stock solutions were prepared in dimethyl sulfoxide (DMSO, Sigma-Aldrich, St. Louis, MO, cat. D2650) at 800-fold the tested concentration and stored at -70 degrees C prior to their use. All drugs and investigational agents were tested over a range starting from a high concentration at or near the clinical Cmax and decreasing in half-log increments. If the clinical Cmax for an agent had not been determined, the highest concentration tested was 10 microM.
# Cell Culture. All cells were maintained in an incubator at 37 degrees C and 5% CO2 with 95% humidity. The PDC lines were cultured according to standard operating procedures established by the NCI PDMR (https://pdmr.cancer.gov/sops/default.htm). All PDCs were thawed and cultured in Matrigel-coated flasks prepared with a working solution of 1X Ham's F-12 nutrient mix, without supplementation (Invitrogen, Waltham, MA, cat. 11765054), 100 U/mL penicillin-streptomycin (Invitrogen, cat. 15140122), and 2.5% Matrigel (Corning Inc., Corning, NY, cat. 354248) for the first three passages. The 354836-022-R-J1-PDC, 475296-252-R-J1-PDC, and 997726-040-R-J2-PDC lines were cultured in 6A media, which includes advanced DMEM/F-12 (Thermo Fisher Scientific, cat. 12634028), 10 mM HEPES (Thermo Fisher Scientific, cat. 15630080), 1X GlutaMAX supplement (Thermo Fisher Scientific, cat. 35050061), 0.1 mg/mL primocin (InvivoGen, San Diego, CA, cat. ant-pm-2), 10% defined fetal bovine serum, heat inactivated (HyClone Laboratories Inc., Logan, UT, cat. SH30070.03HI), 50% L-WRN conditioned media (ATCC, cat. CRL-3276), 1.25 mM N-Acetyl-L-cysteine (Sigma-Aldrich, cat. A9165), 10 mM nicotinamide (Sigma-Aldrich, cat. N0636), 1X B-27 supplement (Thermo Fisher Scientific, cat. 17504044), 1X N-2 supplement (Thermo Fisher Scientific, cat. 17502048), and 10 microM Y-27632 dihydrochloride (Tocris Bioscience, Bristol, United Kingdom, cat. 1254). The 624824-186-R-J2-PDC line was cultured in 6C/Colon 1B media, which includes all 6A media components plus 50 ng/mL human EGF recombinant protein (Thermo Fisher Scientific, cat. PHG0311). […]
# 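Further: spheroids exposed to agents for 7 days before read-out.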
# 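Wherever viability, T/C is given: luminescence used as surrogate of cell viability.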
structure (smiles),measurement,setting,value
Cn1cnc2c(F)c(Nc3ccc(Br)cc3Cl)c(C(=O)NOCCO)cc21 + Cc1nc(NC(=O)N2CCCC2C(N)=O)sc1-c1ccnc(C(C)(C)C(F)(F)F)c1,IC50,second compound 0.0316 µM,659 nM
same,IC50,second compound 0.1 µM,679 nM
same,IC50,second compound 0.316 µM,360 nM
same,IC50,second compound 1 µM,304 nM
same,IC50,second compound 3.16 µM,97.7 nM
same,IC50,second compound 10 µM,39.4 nM
same,"viability, T/C","second compound 0.0316 µM, first compound 0.00949 µM",89%
same,"viability, T/C","second compound 0.0316 µM, first compound 0.03 µM",101%
same,"viability, T/C","second compound 0.0316 µM, first compound 0.0949 µM",104%
same,"viability, T/C","second compound 0.0316 µM, first compound 0.3 µM",60%
same,"viability, T/C","second compound 0.0316 µM, first compound 0.949 µM",48.1%
same,"viability, T/C","second compound 0.0316 µM, first compound 3 µM",19.7%
same,"viability, T/C","second compound 0.1 µM, first compound 0.00949 µM",88.3%
same,"viability, T/C","second compound 0.1 µM, first compound 0.03 µM",56.1%
same,"viability, T/C","second compound 0.1 µM, first compound 0.0949 µM",76.7%
same,"viability, T/C","second compound 0.1 µM, first compound 0.3 µM",61.8%
same,"viability, T/C","second compound 0.1 µM, first compound 0.949 µM",43.8%
same,"viability, T/C","second compound 0.1 µM, first compound 3 µM",28.7%
same,"viability, T/C","second compound 0.316 µM, first compound 0.00949 µM",68.5%
same,"viability, T/C","second compound 0.316 µM, first compound 0.03 µM",81.5%
same,"viability, T/C","second compound 0.316 µM, first compound 0.0949 µM",62.5%
same,"viability, T/C","second compound 0.316 µM, first compound 0.3 µM",56.7%
same,"viability, T/C","second compound 0.316 µM, first compound 0.949 µM",27%
same,"viability, T/C","second compound 0.316 µM, first compound 3 µM",16%
same,"viability, T/C","second compound 1 µM, first compound 0.00949 µM",68.8%
same,"viability, T/C","second compound 1 µM, first compound 0.03 µM",64.4%
same,"viability, T/C","second compound 1 µM, first compound 0.0949 µM",61.1%
same,"viability, T/C","second compound 1 µM, first compound 0.3 µM",51.6%
same,"viability, T/C","second compound 1 µM, first compound 0.949 µM",28.4%
same,"viability, T/C","second compound 1 µM, first compound 3 µM",15.6%
same,"viability, T/C","second compound 3.16 µM, first compound 0.00949 µM",54%
same,"viability, T/C","second compound 3.16 µM, first compound 0.03 µM",64.8%
same,"viability, T/C","second compound 3.16 µM, first compound 0.0949 µM",49.2%
same,"viability, T/C","second compound 3.16 µM, first compound 0.3 µM",26.6%
same,"viability, T/C","second compound 3.16 µM, first compound 0.949 µM",9.72%
same,"viability, T/C","second compound 3.16 µM, first compound 3 µM",3.22%
same,"viability, T/C","second compound 10 µM, first compound 0.00949 µM",54.6%
same,"viability, T/C","second compound 10 µM, first compound 0.03 µM",49.7%
same,"viability, T/C","second compound 10 µM, first compound 0.0949 µM",44.6%
same,"viability, T/C","second compound 10 µM, first compound 0.3 µM",28.8%
same,"viability, T/C","second compound 10 µM, first compound 0.949 µM",5.99%
same,"viability, T/C","second compound 10 µM, first compound 3 µM",1.33%
CNC(=O)c1ccc(N2C(=S)N(c3ccc(C#N)c(C(F)(F)F)c3)C(=O)C2(C)C)cc1F + Cc1nc(NC(=O)N2CCCC2C(N)=O)sc1-c1ccnc(C(C)(C)C(F)(F)F)c1,IC50,second compound 0.0316 µM,> 10000 nM
same,IC50,second compound 0.1 µM,> 10000 nM
same,IC50,second compound 0.316 µM,> 10000 nM
same,IC50,second compound 1 µM,> 10000 nM
same,IC50,second compound 3.16 µM,> 10000 nM
same,IC50,second compound 10 µM,> 10000 nM
same,"viability, T/C","second compound 0.0316 µM, first compound 0.0316 µM",72.6%
same,"viability, T/C","second compound 0.0316 µM, first compound 0.1 µM",93.5%
same,"viability, T/C","second compound 0.0316 µM, first compound 0.316 µM",90.1%
same,"viability, T/C","second compound 0.0316 µM, first compound 1 µM",98.6%
same,"viability, T/C","second compound 0.0316 µM, first compound 3.16 µM",107%
same,"viability, T/C","second compound 0.0316 µM, first compound 10 µM",105%
same,"viability, T/C","second compound 0.1 µM, first compound 0.0316 µM",129%
same,"viability, T/C","second compound 0.1 µM, first compound 0.1 µM",85.5%
same,"viability, T/C","second compound 0.1 µM, first compound 0.316 µM",86.8%
same,"viability, T/C","second compound 0.1 µM, first compound 1 µM",88.5%
same,"viability, T/C","second compound 0.1 µM, first compound 3.16 µM",101%
same,"viability, T/C","second compound 0.1 µM, first compound 10 µM",84%
same,"viability, T/C","second compound 0.316 µM, first compound 0.0316 µM",64.2%
same,"viability, T/C","second compound 0.316 µM, first compound 0.1 µM",72.8%
same,"viability, T/C","second compound 0.316 µM, first compound 0.316 µM",92.6%
same,"viability, T/C","second compound 0.316 µM, first compound 1 µM",83.5%
same,"viability, T/C","second compound 0.316 µM, first compound 3.16 µM",115%
same,"viability, T/C","second compound 0.316 µM, first compound 10 µM",85.8%
same,"viability, T/C","second compound 1 µM, first compound 0.0316 µM",65.6%
same,"viability, T/C","second compound 1 µM, first compound 0.1 µM",70%
same,"viability, T/C","second compound 1 µM, first compound 0.316 µM",65.6%
same,"viability, T/C","second compound 1 µM, first compound 1 µM",68.5%
same,"viability, T/C","second compound 1 µM, first compound 3.16 µM",79.7%
same,"viability, T/C","second compound 1 µM, first compound 10 µM",75%
same,"viability, T/C","second compound 3.16 µM, first compound 0.0316 µM",58.9%
same,"viability, T/C","second compound 3.16 µM, first compound 0.1 µM",62.6%
same,"viability, T/C","second compound 3.16 µM, first compound 0.316 µM",58.7%
same,"viability, T/C","second compound 3.16 µM, first compound 1 µM",55.9%
same,"viability, T/C","second compound 3.16 µM, first compound 3.16 µM",63.6%
same,"viability, T/C","second compound 3.16 µM, first compound 10 µM",59%
same,"viability, T/C","second compound 10 µM, first compound 0.0316 µM",63.9%
same,"viability, T/C","second compound 10 µM, first compound 0.1 µM",55%
same,"viability, T/C","second compound 10 µM, first compound 0.316 µM",53.2%
same,"viability, T/C","second compound 10 µM, first compound 1 µM",57.3%
same,"viability, T/C","second compound 10 µM, first compound 3.16 µM",47.3%
same,"viability, T/C","second compound 10 µM, first compound 10 µM",59.5%
